As a reminder, the pIC50 is −log10 of the IC50, conventionally taken in molar units.

pIC50: −log10 of the molar value.

Chain of recombinant full-length human hydroxyacid oxidase 1 (HAO1), the equivalents of hGOX (Q9UJM8 whole entry): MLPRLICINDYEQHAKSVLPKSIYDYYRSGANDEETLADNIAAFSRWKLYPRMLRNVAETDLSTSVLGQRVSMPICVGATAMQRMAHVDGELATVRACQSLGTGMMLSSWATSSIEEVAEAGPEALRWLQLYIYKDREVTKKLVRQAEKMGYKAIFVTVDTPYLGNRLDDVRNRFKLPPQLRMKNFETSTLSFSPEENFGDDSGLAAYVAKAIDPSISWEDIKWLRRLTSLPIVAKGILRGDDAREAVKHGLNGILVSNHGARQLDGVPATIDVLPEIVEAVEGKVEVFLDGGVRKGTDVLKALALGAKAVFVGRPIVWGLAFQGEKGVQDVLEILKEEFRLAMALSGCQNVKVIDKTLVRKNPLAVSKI

This test deals with recombinant full-length human hydroxyacid oxidase 1 (HAO1), the equivalents of hGOX (Homo sapiens (Human), UniProt Q9UJM8). The experiment in a line: In-vitro human glycolate oxidase (hGOX) assay (Amplex red fluorescence). The conditions noted are these: 6 nM recombinant human GO, 85 μM glycolate, 10 min preincubation. Format: biochemical. The procedure:
The in-vitro glycolate oxidase assay was performed using recombinant full-length human hydroxyacid oxidase 1 (HAO1), the equivalents of hGOX. […] Purified HAO1 was dissolved in assay buffer consisting of 10 mM NaCl, 110 mM KCl, 2 mM MgCl2, 50 mM HEPES (pH 7.4), and 0.01% Triton™ X-100.
The plates were incubated for 10 min at room temperature, at which point Amplex red reagent (50 μM) was added.
The fluorescence intensity signal was measured on a VariosKan LUX instrument using an excitation of 560 nm and an emission of 590 nm. The IC50 values were calculated using Graphpad Prism. The fluorescence signal of wells containing only DMSO was defined as 100% GO activity, while the fluorescence signal without the glycolate substrate was defined as 0% GO activity.
Take `C#Cc1ccc(Oc2[nH]nnc2C(=O)O)cc1` [Example 2, 5-(4-Ethynylphenoxy)-1H-1,2,3-triazole-4-carboxylic Acid]: the negative-log IC50 (pIC50) was 7.05. With `CC#Cc1ccc(Oc2[nH]nnc2C(=O)O)cc1` [Example 5, 5-(4-(Prop-1-ynyl)phenoxy)-1H-1,2,3-triazole-4-carboxylic Acid], the pIC50 was 7.92. For the compound `CC(C)C#Cc1ccc(Oc2[nH]nnc2C(=O)O)cc1` [Example 9, 5-(4-(3-Methylbut-1-ynyl)phenoxy)-1H-1,2,3-triazole-4-carboxylic Acid], the pIC50 is 7.21.

For `CC(C)(O)C#Cc1ccc(Oc2[nH]nnc2C(=O)O)cc1` [Example 13, 5-(4-(3-Hydroxy-3-methylbut-1-ynyl)phenoxy)-1H-1,2,3-triazole-4-carboxylic Acid], the pIC50 is 6.36. The same measure for `O=C(O)c1nn[nH]c1Oc1ccc(C#CC2CCCCC2)cc1` [Example 36, 5-(4-(2-Cyclohexylethynyl)phenoxy)-1H-1,2,3-triazole-4-carboxylic Acid]: 8.05; for `O=C(O)c1nn[nH]c1Oc1cccc(C#CC2CCCCC2)c1` [Example 37, 5-(3-(2-Cyclohexylethynyl)phenoxy)-1H-1,2,3-triazole-4-carboxylic Acid]: 8.10.

For the compound `O=C(O)c1nn[nH]c1Oc1ccc(C#CC2CCOCC2)cc1` [Example 40, 5-(4-(2-(Tetrahydro-2H-pyran-4-yl)ethynyl)phenoxy)-1H-1,2,3-triazole-4-carboxylic Acid], the negative-log IC50 (pIC50) is 7.40.

Turning to `O=C(O)c1nn[nH]c1Oc1ccc(C#Cc2ccc3[nH]ncc3c2)cc1` [Example 108, 5-(4-(2-(1H-Indazol-5-yl)ethynyl)phenoxy)-1H-1,2,3-triazole-4-carboxylic Acid], the pIC50 was 9.00. The same measure for `O=C(O)c1nn[nH]c1Oc1ccc(C#Cc2ccccc2)cc1` [Example 138, 5-(4-(2-Phenylethynyl)phenoxy)-1H-1,2,3-triazole-4-carboxylic Acid]: 8.15; for `O=C(O)c1nn[nH]c1Oc1ccc(C#Cc2ccccc2)c(F)c1` [Example 146, 5-(3-Fluoro-4-(2-phenylethynyl)phenoxy)-1H-1,2,3-triazole-4-carboxylic Acid]: 9.00. The same measure for `O=C(O)c1nn[nH]c1Oc1ccc(Cl)c(C#Cc2ccccc2)c1` [Example 147, 5-(4-Chloro-3-(2-phenylethynyl)phenoxy)-1H-1,2,3-triazole-4-carboxylic Acid]: 8.40; for `CS(=O)(=O)c1ccc(Oc2[nH]nnc2C(=O)O)cc1C#Cc1ccccc1` [Example 149, 5-(4-(Methylsulfonyl)-3-(2-phenylethynyl)phenoxy)-1H-1,2,3-triazole-4-carboxylic Acid]: 7.85.

On to `O=C(O)c1nn[nH]c1Oc1cccc(C#Cc2ncccn2)c1` [Example 165, 5-(3-(2-(Pyrimidin-2-yl)ethynyl)phenoxy)-1H-1,2,3-triazole-4-carboxylic Acid], for which the pIC50 is 8.22. The same measure for `O=C(O)c1nn[nH]c1Oc1ccc(C#Cc2cn[nH]c2)cc1` [Example 178, 5-(4-(2-(1H-Pyrazol-4-yl)ethynyl)phenoxy)-1H-1,2,3-triazole-4-carboxylic Acid]: 8.22. With `O=C(O)c1nn[nH]c1Oc1cccc(C#Cc2cccc(Cl)c2)c1` [Example 187, 5-(3-(2-(3-Chlorophenyl)ethynyl)phenoxy)-1H-1,2,3-triazole-4-carboxylic Acid], the pIC50 is 9.00. Turning to `CS(=O)(=O)c1cccc(C#Cc2cccc(Oc3[nH]nnc3C(=O)O)c2)c1` [Example 191, 5-(3-(2-(3-(Methylsulfonyl)phenyl)ethynyl)phenoxy)-1H-1,2,3-triazole-4-carboxylic Acid], the pIC50 is 8.22.

For the compound `Cn1cc(C#Cc2ccc(Oc3[nH]nnc3C(=O)O)cc2)ccc1=O` [Example 208, 4-(4-((1-Methyl-6-oxo-1,6-dihydropyridin-3-yl)ethynyl)phenoxy)-1H-1,2,3-triazole-5-carboxylic Acid], the pIC50 was 8.70. The value for `Cn1cc(C#Cc2cccc(Oc3[nH]nnc3C(=O)O)c2)ccc1=O` [Example 209, 4-(3-((1-Methyl-6-oxo-1,6-dihydropyridin-3-yl)ethynyl)phenoxy)-1H-1,2,3-triazole-5-carboxylic Acid] was 8.10; that for `CC(C)(O)C#Cc1cccc(Oc2[nH]nnc2C(=O)O)c1` [Example 215, 5-(3-(3-Hydroxy-3-methylbut-1-ynyl)phenoxy)-1H-1,2,3-triazole-4-carboxylic Acid] was 7.32. The same measure for `Cn1cc(C#Cc2ccc(Oc3[nH]nnc3C(=O)O)cc2)cn1` [Example 220, 5-(4-(2-(1-Methyl-1H-pyrazol-4-yl)ethynyl)phenoxy)-1H-1,2,3-triazole-4-carboxylic Acid]: 8.40. The same measure for `CS(=O)(=O)c1cccc(C#Cc2ccc(Oc3[nH]nnc3C(=O)O)cc2)c1` [Example 254, 5-(4-(2-(3-(Methylsulfonyl)phenyl)ethynyl)phenoxy)-1H-1,2,3-triazole-4-carboxylic Acid]: 8.52. Regarding `Cn1ccc(C#Cc2ccc(Oc3[nH]nnc3C(=O)O)cc2)cc1=O` [Example 256, 4-(4-((1-Methyl-2-oxo-1,2-dihydropyridin-4-yl)ethynyl)phenoxy)-1H-1,2,3-triazole-5-carboxylic Acid], the pIC50 is 8.70. The same measure for `Cn1ccc(C#Cc2cccc(Oc3[nH]nnc3C(=O)O)c2)cc1=O` [Example 257, 4-(3-((1-Methyl-2-oxo-1,2-dihydropyridin-4-yl)ethynyl)phenoxy)-1H-1,2,3-triazole-5-carboxylic Acid]: 9.00; for `O=C(O)c1nn[nH]c1Oc1cc(F)cc(C#Cc2ccccc2)c1` [Example 258, 5-(3-Fluoro-5-(2-phenylethynyl)phenoxy)-1H-1,2,3-triazole-4-carboxylic Acid]: 8.70; for `O=C(O)c1nn[nH]c1Oc1ccc(F)c(C#Cc2ccccc2)c1` [Example 259, 5-(4-Fluoro-3-(2-phenylethynyl)phenoxy)-1H-1,2,3-triazole-4-carboxylic Acid]: 9.00. The value for `O=C(O)c1nn[nH]c1Oc1ccc(C#Cc2ccccc2)cc1F` [Example 260, 5-(2-Fluoro-4-(2-phenylethynyl)phenoxy)-1H-1,2,3-triazole-4-carboxylic Acid] was 8.30; that for `O=C(O)c1nn[nH]c1Oc1cc(C#Cc2ccccc2)ccc1F` [Example 261, 5-(2-Fluoro-5-(2-phenylethynyl)phenoxy)-1H-1,2,3-triazole-4-carboxylic Acid] was 8.40; that for `Cc1ccc(Oc2[nH]nnc2C(=O)O)cc1C#Cc1ccccc1` [Example 262, 5-(4-Methyl-3-(2-phenylethynyl)phenoxy)-1H-1,2,3-triazole-4-carboxylic Acid] was 9.00. Turning to `O=C(O)c1nn[nH]c1Oc1ccc(C(F)(F)F)c(C#Cc2ccccc2)c1` [Example 263, 5-(4-(Trifluoromethyl)-3-(2-phenylethynyl)phenoxy)-1H-1,2,3-triazole-4-carboxylic Acid], the negative logarithm of the IC50 (pIC50) was 8.70. The value for `COc1ccc(Oc2[nH]nnc2C(=O)O)cc1C#Cc1ccccc1` [Example 264, 5-(4-Methoxy-3-(2-phenylethynyl)phenoxy)-1H-1,2,3-triazole-4-carboxylic Acid] was 7.70. `O=C(O)c1ccc(C#Cc2cc(F)cc(Oc3[nH]nnc3C(=O)O)c2)cc1` [Example 265, 5-(3-Fluoro-5-(2-(4-carboxyphenyl)ethynyl)phenoxy)-1H-1,2,3-triazole-4-carboxylic Acid]: the pIC50 is 8.52.

In the case of `CS(=O)(=O)c1ccc(C#Cc2cc(Oc3[nH]nnc3C(=O)O)ccc2F)cc1` [Example 266, 5-(4-Fluoro-3-(2-(4-(methylsulfonyl)phenyl)ethynyl)phenoxy)-1H-1,2,3-triazole-4-carboxylic Acid], the pIC50 was 8.70. Consider `CS(=O)(=O)c1cccc(C#Cc2cc(Oc3[nH]nnc3C(=O)O)ccc2F)c1` [Example 267, 5-(4-Fluoro-3-(2-(3-(methylsulfonyl)phenyl)ethynyl)phenoxy)-1H-1,2,3-triazole-4-carboxylic Acid], for which the pIC50 is 8.70. The same measure for `N#Cc1ccc(C#Cc2ccc(Oc3[nH]nnc3C(=O)O)cc2F)cc1` [Example 269, 5-(4-((4-Cyanophenyl)ethynyl)-3-fluorophenoxy)-1H-1,2,3-triazole-4-carboxylic Acid]: 9.00. As to `N#Cc1cccc(C#Cc2ccc(Oc3[nH]nnc3C(=O)O)cc2F)c1` [Example 270, 5-(4-((3-Cyanophenyl)ethynyl)-3-fluorophenoxy)-1H-1,2,3-triazole-4-carboxylic Acid], the pIC50 is 9.00.

For the compound `CS(=O)(=O)c1ccc(C#Cc2ccc(Oc3[nH]nnc3C(=O)O)cc2F)cc1` [Example 272, 5-(3-Fluoro-4-(2-(4-(methylsulfonyl)phenyl)ethynyl)phenoxy)-1H-1,2,3-triazole-4-carboxylic Acid], the pIC50 was 8.70.

`CS(=O)(=O)c1cccc(C#Cc2ccc(Oc3[nH]nnc3C(=O)O)cc2F)c1` [Example 273, 5-(3-Fluoro-4-(2-(3-(methylsulfonyl)phenyl)ethynyl)phenoxy)-1H-1,2,3-triazole-4-carboxylic Acid]: the pIC50 was 8.70.

For the compound `CS(=O)(=O)c1ccc(C#Cc2cc(F)cc(Oc3[nH]nnc3C(=O)O)c2)cc1` [Example 274, 5-(3-Fluoro-5-(2-(4-(methylsulfonyl)phenyl)ethynyl)phenoxy)-1H-1,2,3-triazole-4-carboxylic Acid], the pIC50 was 8.30.
